Test [1] concerns the target human recombinant sGC enzyme (Homo sapiens (Human), UniProt Q02108+Q02153). Description: Size Exclusion Chromatography (SEC) competition binding assay using [3H] Ex-77B as the radioligand. The settings on record: [3H] Ex-77B radioligand, 24 hours at 37° C. Put shortly:
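Recombinant human sGC binding measured by competition against tritiated Ex-77B radioligand, with non-specific binding defined by 1 μM unlabeled Ex-77B.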

Another test concerns the target sGC α1/β1 heterodimer (Homo sapiens (Human), UniProt Q02108+Q02153). Description: Cell-based sGC functional assay (cyclic GMP assay for sGC activator: CASA assay). Also on record: % Activation: concentration or dose not given beside the values. The settings on record: CHO-K1/sGC cells; for Emax: CHO-K1, activity expressed as percentage of compound A (standard), read-out: % Activation; for EC50: inflection point, 4P fit, read-out: IP. In short, it runs like this: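 CHO-K1 cells stably expressing sGC α1/β1 were pre-incubated with or without 1 μM DETA-NO (30 min, 25 °C), then exposed to compounds for 1 hr at 37 °C with 0.5 mM IBMX. Intracellular cGMP was read by HTRF and expressed as a percentage of a reference heme-dependent activator's maximum.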

SMILES strings stand for the structures.

The term Ki denotes the equilibrium dissociation constant of an inhibitor or competing ligand from its target. In the case of `CC(C)(Cc1coc(C2(C)C(=O)Nc3nc(-c4nn(Cc5c(F)ccc(F)c5F)c5cc(Cl)ccc45)nc(N)c32)n1)C(=O)O` (centres unmarked) [Example 189A, 3-(2-{4-amino-2-[6-chloro-1-(2,3,6-trifluorobenzyl)-1H-indazol-3-yl]-5-methyl-6-oxo-6,7-dihydro-5H-pyrrolo[2,3-d]pyrimidin-5-yl}-1,3-oxazol-4-yl)-2,2-dimethyl-propanoic acid], in test [1], the inhibition constant Ki stood at 0.049 nM. In addition, on sGC α1/β1 heterodimer, the Emax is 116% and the EC50 is 51 nM.
With `CC(C)(Cc1csc([C@]2(C)C(=O)Nc3nc(-c4nn(Cc5ccc(F)cc5F)c5cc(Cl)ccc45)nc(N)c32)n1)C(=O)O` [Example 179A, (S)-3-(2-{4-amino-2-[6-chloro-1-(2,4-difluorobenzyl)-1H-indazol-3-yl]-5-methyl-6-oxo-6,7-dihydro-5H-pyrrolo[2,3-d]pyrimidin-5-yl}-1,3-thiazol-4-yl)-2,2-dimethyl-propanoic acid], the Ki in test [1] worked out at 0.144 nM. Also, on sGC α1/β1 heterodimer, the Emax is 118% and the EC50 worked out at 262 nM.
With `CC(C)(Cc1csc([C@]2(C)C(=O)Nc3nc(-c4nn(CC5CCCCC5)c5cc(F)ccc45)nc(N)c32)n1)C(=O)O` [Example 201A, (S)-3-(2-{4-amino-2-[1-(cyclohexyl-methyl)-6-fluoro-1H-indazol-3-yl]-5-methyl-6-oxo-6,7-dihydro-5H-pyrrolo[2,3-d]pyrimidin-5-yl}-1,3-thiazol-4-yl)-2,2-dimethyl-propanoic acid], the Ki in test [1] came to 0.151 nM. Further, at sGC α1/β1 heterodimer, the Emax stood at 91.2% and the EC50 stood at 39 nM.
`CC1CCC(Cn2nc(-c3nc(N)c4c(n3)NC(=O)C4(C)c3nc(CC(C)(C)C(=O)O)co3)c3ccc(Cl)cc32)CC1` (single isomer, unassigned) [Example 132AB, 3-{2-[4-amino-2-{6-chloro-1-[4-methylcyclohexylmethyl]-1H-indazol-3-yl}-5-methyl-6-oxo-6,7-dihydro-5H-pyrrolo[2,3-d]pyrimidin-5-yl]-1,3-oxazol-4-yl}-2,2-dimethylpropanoic acid]: the Ki in test [1] was 0.074 nM. In addition, on sGC α1/β1 heterodimer (activity expressed as percentage of compound A (standard)), the “% Activation” value came to 109.2%. Also, the EC50 on sGC α1/β1 heterodimer stood at 89 nM.
Consider `CC(C)(Cc1coc(C2(C3CC3)C(=O)Nc3nc(-c4nn(Cc5ccccc5F)c5cc(F)ccc45)nc(N)c32)n1)C(=O)O` (centres unmarked) [Example 139B, 3-(2-{4-amino-5-cyclopropyl-2-[6-fluoro-1-(2-fluorobenzyl)-1H-indazol-3-yl]-6-oxo-6,7-dihydro-5H-pyrrolo[2,3-d]pyrimidin-5-yl}-1,3-oxazol-4-yl)-2,2-dimethylpropanoic acid], for which the inhibition constant (Ki) in test [1] came out at 0.114 nM. Further, at sGC α1/β1 heterodimer, the Emax came out at 135% and the EC50 is 3460 nM.
`CC1(c2ccc(C(=O)O)cn2)C(=O)Nc2nc(-c3nn(Cc4ccccc4F)c4cc(Cl)ccc34)nc(N)c21` (centres unmarked) [Example 254A, 6-{4-Amino-2-[6-chloro-1-(2-fluorobenzyl)-1H-indazol-3-yl]-5-methyl-6-oxo-6,7-dihydro-5H-pyrrolo[2,3-d]pyrimidin-5-yl}pyridine-3-carboxylic acid]: in test [1], the Ki came to 0.199 nM. Moreover, at sGC α1/β1 heterodimer, the Emax is 123% and the EC50 was 1010 nM.
With `CC1(c2ccc(CCCC(=O)O)cc2)C(=O)Nc2nc(-c3nn(CCC(F)(F)C(F)(F)F)c4ncccc34)nc(N)c21` (centres unmarked) [Example 116A, 4-(4-{4-amino-5-methyl-6-oxo-2-[1-(3,3,4,4,4-pentafluorobutyl)-1H-pyrazolo[3,4-b]pyridin-3-yl)-6,7-dihydro-5H-pyrrolo[2,3-d]pyrimidin-5-yl}phenyl)butanoic acid], the Ki in test [1] is 0.296 nM. At sGC α1/β1 heterodimer, the Emax came to 78% and the EC50 was determined as 608 nM.
Regarding `CC1(c2ccnc(C(=O)O)c2)C(=O)Nc2nc(-c3nn(Cc4ccccc4F)c4cc(Cl)ccc34)nc(N)c21` (centres unmarked) [Example 143B, 4-{4-amino-2-[6-chloro-1-(2-fluoro-benzyl)-1H-indazol-3-yl]-5-methyl-6-oxo-6,7-dihydro-5H-pyrrolo[2,3-d]pyrimidin-5-yl} pyridine-2-carboxylic acid], in test [1], the inhibition constant Ki came to 0.174 nM. In addition, at sGC α1/β1 heterodimer, the Emax came out at 76.1% and the EC50 was found to be 3380 nM.
On to `CC1(N2CCC(CCC(=O)O)CC2)C(=O)Nc2nc(-c3nn(Cc4ccccc4F)c4cc(Cl)ccc34)nc(N)c21` (centres unmarked) [Example 262B, 3-(1-{4-Amino-2-[6-chloro-1-(2-fluorobenzyl)-1H-indazol-3-yl]-5-methyl-6-oxo-6,7-dihydro-5H-pyrrolo[2,3-d]pyrimidin-5-yl}piperidin-4-yl)propanoic acid], for which, in test [1], the Ki was 0.097 nM. In addition, on sGC α1/β1 heterodimer, the Emax was 82.4% and the EC50 came to 27 nM.
Consider `CC(C)(CCc1coc(C2(C)C(=O)Nc3nc(-c4nn(Cc5ccccc5F)c5cc(F)ccc45)nc(N)c32)n1)C(=O)O` (centres unmarked) [Example 193B, 4-(2-{4-amino-2-[6-fluoro-1-(2-fluorobenzyl)-1H-indazol-3-yl]-5-methyl-6-oxo-6,7-dihydro-5H-pyrrolo[2,3-d]pyrimidin-5-yl}-1,3-oxazol-4-yl)-2,2-dimethyl-butanoic acid], for which the Ki in test [1] is 0.052 nM. Besides, at sGC α1/β1 heterodimer, the Emax worked out at 89.2% and the EC50 turned out to be 69 nM.
On the same counts, the results for `Cc1oc(C2(C)C(=O)Nc3nc(-c4nn(Cc5cccc(F)c5)c5cc(Cl)ccc45)nc(N)c32)nc1CC(C)(C)C(=O)O` (centres unmarked) [Example 176B, 3-(2-{4-amino-2-[6-chloro-1-(3-fluorobenzyl)-1H-indazol-3-yl]-5-methyl-6-oxo-6,7-dihydro-5H-pyrrolo[2,3-d]pyrimidin-5-yl}-5-methyl-1,3-oxazol-4-yl)-2,2-dimethyl-propanoic acid] are 0.13 nM, 118% and 1470 nM.
As for `CC1(c2cccc(-c3nn[nH]n3)c2)C(=O)Nc2nc(-c3nn(CCC(F)(F)C(F)(F)F)c4ncccc34)nc(N)c21` (single isomer, unassigned) [Example 252B, 4-amino-5-methyl-2-[1-(3,3,4,4,4-pentafluorobutyl)-1H-pyrazolo[3,4-b]pyridin-3-yl]-5-[3-(2H-tetrazol-5-yl)phenyl]-5,7-dihydro-6H-pyrrolo[2,3-d] pyrimidin-6-one], in test [1], the Ki is 0.292 nM. In addition, the EC50 on sGC α1/β1 heterodimer was 2460 nM.
With `CC1(c2nc(-c3ccc(C(=O)O)cc3)cs2)C(=O)Nc2nc(-c3nn(Cc4ccccc4F)c4ncccc34)nc(N)c21` (centres unmarked) [Example 147A, 4-(2-{4-amino-2-[1-(2-fluorobenzyl)-1H-pyrazolo[3,4-b]pyridin-3-yl]-5-methyl-6-oxo-6,7-dihydro-5H-pyrrolo [2,3-d]pyrimidin-5-yl}-1,3-thiazol-4-yl)benzoic acid], in test [1], the Ki is 0.075 nM. Further, on sGC α1/β1 heterodimer, the Emax is 73.4% and the EC50 is 61 nM.
Consider `CC[C@H](NC(=O)CCc1ccc([C@]2(C)C(=O)Nc3nc(-c4nn(Cc5ccccc5F)c5ncccc45)nc(N)c32)cc1)C(=O)O` [Example 105B, (5S,2S)-2-(3-(4-{4-amino-2-[1-(2-fluorobenzyl)-1H-pyrazolo[3,4-b]pyridin-3-yl]-5-methyl-6-oxo-6,7-dihydro-5H-pyrrolo[2,3-d]pyrimidin-5-yl}phenyl)propanamido)butanoic acid], for which, in test [1], the Ki worked out at 0.042 nM. For the same compound, on sGC α1/β1 heterodimer, the Emax came to 97% and the EC50 turned out to be 2160 nM.
`CC(C)(Cc1csc([C@]2(C)C(=O)Nc3nc(-c4nn(Cc5ccccc5F)c5cc(F)ccc45)nc(N)c32)n1)C(=O)O` [Example 62A, (S)-3-(2-{4-amino-2-[6-fluoro-1-(2-fluorobenzyl)-1H-indazol-3-yl]-5-methyl-6-oxo-6,7-dihydro-5H-pyrrolo[2,3-d]pyrimidin-5-yl}-1,3-thiazol-4-yl)-2,2-dimethylpropanoic acid]: the Ki in test [1] came to 0.022 nM. Further, on sGC α1/β1 heterodimer, the Emax turned out to be 148% and the EC50 amounted to 141 nM.
On to `CC1(c2ccc(CCC(=O)O)c(Br)c2)C(=O)Nc2nc(-c3nn(CCC(F)(F)C(F)(F)F)c4cc(Cl)ccc34)nc(N)c21` (centres unmarked) [Example 4B, 3-(4-{4-amino-2-[6-chloro-1-(3,3,4,4,4-pentafluoro-butyl)-1H-indazol-3-yl]-5-methyl-6-oxo-6,7-dihydro-5H-pyrrolo[2,3-d]pyrimidin-5-yl}-2-bromophenyl)propanoic acid], for which the Ki in test [1] worked out at 0.391 nM. In addition, at sGC α1/β1 heterodimer, the Emax was 126% and the EC50 was 294 nM.
On the same counts, the results for `CC(C)(Cc1coc(C2(C)C(=O)Nc3nc(-c4nn(CC5CCCC5)c5cc(Cl)ccc45)nc(N)c32)n1)C(=O)O` (centres unmarked) [Example 161A, 3-(2-{4-amino-2-[6-chloro-1-(cyclopentylmethyl)-1H-indazol-3-yl]-5-methyl-6-oxo-6,7-dihydro-5H-pyrrolo[2,3-d]pyrimidin-5-yl}-1,3-oxazol-4-yl)-2,2-dimethyl-propanoic acid] are 0.081 nM, 121% and 291 nM.
Turning to `C[C@H](NC(=O)CCc1ccc([C@]2(C)C(=O)Nc3nc(-c4nn(Cc5ccccc5F)c5ncccc45)nc(N)c32)cc1)C(=O)O` [Example 103B, (5S)-(3-(4-{4-amino-2-[1-(2-fluorobenzyl)-1H-pyrazolo[3,4-b]pyridin-3-yl]-5-methyl-6-oxo-6,7-dihydro-5H-pyrrolo[2,3-d]pyrimidin-5-yl}phenyl)propanoyl)-L-alanine], the Ki in test [1] is 0.045 nM. Moreover, on sGC α1/β1 heterodimer, the Emax was 104% and the EC50 is 2950 nM.

For the origin of these results see patent US10030027B2, “Soluble guanylate cyclase stimulators” (MERCK SHARP & DOHME CORP., priority 2015, dated 2018).
